Paper PMC9738927, “A Newly Identified Monoterpenoid-Based Small Molecule Able to Support the Survival of Primary Cultured Dopamine Neurons and Alleviate MPTP-Induced Toxicity In Vivo” (Molecules, 2022)

What was measured:
[1] = system: MPP^+-treated primary midbrain dopamine neurons; test: Survival of MPP+-challenged cultured dopamine neurons (TH-positive cell count); type: cell-based, mouse
Method: We developed a compound library containing 20 diol derivatives and screened them on cultured primary DA neurons (Supplementary Materials, Table S1). Compounds were taken at a dose of 0.1 and 1 μM (based on effective doses for the epoxydiol). Based on the screening results, we selected four compounds and tested them in a naïve and MPP^+-treated (1-methyl-4-phenylpyridinium (MPP^+), the neurotoxic metabolite of MPTP) DA culture at 1, 10, and 100 nM to select the compound with the lowest effective dose.
The survival of cultured mouse DA neurons was assessed as described before. Briefly, naïve or MPP^+ (dopaminergic selective neurotoxin)-challenged embryonic midbrain neurons were cultured in the presence or absence of a diol-like compound. The number of survived DA neurons was estimated after immunocytochemical staining with antibodies recognizing the key enzyme of dopamine synthesis—tyrosine hydroxylase.

MPTP-treated mice [2] = test: Open field test in the acute MPTP mouse model of PD; type: in vivo
Method: MPTP was injected intraperitoneally into mice of C57Bl/6 line every 2 h in 8 h period in one day in a dose of 20 mg/kg for a total of four doses as described before, and one additional dose of MPTP was injected on the 7th day. The studied compound PA96 was dissolved in saline containing 0.5% Tween 80 just before use. PA96 in a dose of 1 and 10 mg/kg or VEH was administrated per os 24 h after the last injection of MPTP. Then, PA96 or VEH was injected for 14 days in a 5-day-per-week regime for a total of […].
The effectiveness of the studied medications was evaluated according to their ability to reduce the symptoms of hypokinesia induced by MPTP on days 1, 7, and 14 of the experiment. Hypokinesia caused by neurotoxin administration was evaluated with the “open field” test performed for 2 min using Tru Scan (U.S.) 2 h after the administration of the studied compound, registering the main markers of the locomotor and exploratory activities: time of locomotor activity (s) and movement distance (cm).

MPTP-treated mice [3] = test: Coat hanger test in the acute MPTP mouse model of PD; type: in vivo, C57Bl/6 male mice
[4] = system: haloperidol-induced catalepsy; test: Haloperidol-induced catalepsy, parallel bars test; type: in vivo, male Wistar rats; details: 1, 10, 20 mg/kg per os, haloperidol 1.5 mg/kg i.p.
Method: Neuroleptic-induced catalepsy has long been used as an animal model for screening drugs for parkinsonism, as described before. Adult male Wistar rats were divided into four groups, each containing six animals. Group 1 received haloperidol 1.5 mg/kg in normal saline and served as the cataleptic control without any drug treatment. The studied compound PA96 was dissolved in saline containing 0.5% Tween 80 just before use. Groups 2, 3, and 4 received PA-96 in a dose of 1, 10, or 20 mg/kg per os accordingly; 10 min after the PA96 administration, catalepsy was induced by the intraperitoneal administration of haloperidol in a dose of 1.5 mg/kg body weight in normal saline. All the behavioral studies were performed at room temperature in a calm room without external interference. The severity of catalepsy was measured 30, 60, 120, 180, and 240 min after haloperidol administration using the method of parallel bars. The fore and hind limbs of a rat were placed on parallel bars (walls) to ensure that the animal’s back was straight, and the time spent by the animal in an immobilized state was recorded. The general duration of catalepsy and the percentage of cataleptic animals in the group were evaluated.

naïve C57Bl/6 mice = test: Open field test in naïve mice; type: in vivo, C57Bl/6 male mice; details: 1, 10, 20 mg/kg once per os, 1 h after dosing
Method: The studied agent in a dose of 1 mg/kg, 10 mg/kg, and 20 mg/kg or saline was administered once per os in a water-Tween 80 solution to 8 mice per group of C57Bl/6 mice. The main markers of the locomotor activity movement distance (cm) and duration of locomotor activity (s) were registered with the open field test performed for 2 min using Tru Scan (USA), 1 h after the administration of the studied agent.

[5] = Maximum tolerated dose and LD50 (acute oral toxicity); type: in vivo; details: female, CD-1, mouse, in vivo, po
Method: (§1) Healthy animals were randomly divided into groups of four males or four females each. After a 3–4 h starvation, animals were administered 100, 150, 200, or 500 mg/kg PA96 solution (prepared by dissolution in saline containing 0.5% Tween 80) or the vehicle […]. Food was provided for approximately 1–2 h after administration. All mice were continuously monitored for changes in weight, breathing, ptosis, gait disturbance, tremor, and mortality 1 h after administration of PA96 and every 6 h after that. The day of dosing was designated as day 0, and animals were observed until day 14. Each mouse was weighed on days 0, 1, 3, 7, and 14.
(§2) The arithmetic method of Kerber was used to determine the lethal dose fifty (LD50) that killed 50% of studied animals with PA96.
(§3) The LD50 value was determined according to the following equation [24]:LD50 = LD100 − ∑ (z × d)/m(1) where LD50—dose capable of killing 50% of animals; LD100—dose capable of killing 100% of animals; z—half the sum of the number of animals in the experiments with the test of two following doses; d—the difference between two successive doses of administrative PA96; m—total number of animals in each group.

CD-1 female mice = test: as above; type: in vivo
Method: as §1, §2, §3

C=C(C)[C@@H]1CC=C(C)[C@@H](Sc2nc[nH]n2)[C@@H]1O [PA96, (1R,2R,6S)-2-(1H-1,2,4-triazol-3-ylthio)-3-methyl-6-(prop-1-en-2-yl)cyclohex-3-enol]
number of TH-positive neurons relative to VEH-treated wells ([1]; MPP+ and 1 nM, p = 0.03): 2.4 fold
inhibition at 0.1 µM ([1]; Mus musculus, Neuron, 100 nM, compared to VEH-treated wells, read-out: Support effect / inhibition, MPP+-treated dopamine neurons, 100 nM): 0%
tolerability of repeated dosing (MPTP-treated mice [2]; 1 mg/kg and 10 mg/kg administered for 14 days): well tolerated
duration of locomotor activity in open field (MPTP-treated mice [2]; MPTP-treated mice, 1 mg/kg, 24 h time point, p = 0.1328 vs VEH): on VEH level
movement distance in open field (MPTP-treated mice [2]; MPTP-treated mice, 1 and 10 mg/kg per os): did not influence
antiparkinsonian activity in vivo (effective dose) (MPTP-treated mice [3]; MPTP mouse model, per os): 1 mg/kg
coat hanger score (MPTP-treated mice [3]; MPTP-treated mice, 1 mg/kg, 60 s time point, MPTP 3.6 ± 1.0, p = 0.0324): 6.7 ± 0.2
increase of movement time in coat hanger test (MPTP-treated mice [3]; MPTP-treated mice, 1 mg/kg, vs MPTP): 40%
coat hanger score (MPTP-treated mice [3]; MPTP-treated mice, 10 mg/kg, p = 0.0622): trend toward increasing the score
catalepsy time [4]: significantly decreased
percentage of cataleptic animals [4]: significantly decreased
locomotor activity of naive animals (movement distance, duration) (naïve C57Bl/6 mice): did not activate
LD50 at 14 days [5]: 234 mg/kg
MTD at 14 days [5]: 100 mg/kg
MTD relative to the effective dose (CD-1 female mice; female, CD-1, mouse, in vivo, 14 days): 100 fold
dose at which abnormal clinical signs were observed (piloerection, decreased motor activity, ptosis, gait disturbance) (CD-1 female mice; female, CD-1, mouse, in vivo, po, 14 days): ≥ 150 mg/kg
hazard category (CD-1 female mice; mouse, in vivo): Category III (slightly hazardous)
therapeutic dose lower than LD50 (CD-1 female mice; therapeutic dose vs LD50): at least 100 times
